# Measured values published in patent publication US9695155B2, “Herbicidal substituted pyrimidinyloxy benzene compounds” (E. I. DU PONT DE NEMOURS AND COMPANY, priority 2013, dated 2017).
# Experiments:
# corn [1] = assay: Test A postemergence; type: in vivo, Zea mays; conditions: 0 to 100 scale where 0 is no effect and 100 is complete control; for Corn plant response rating: 125 g ai/ha; for Plant response rating, Corn: 500 g ai/ha
# Procedure, shortened: (§1)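 Pre- and postemergence greenhouse screen. Soil: loam + sand. Spray carrier: solvent mixture, non-phytotoxic, with surfactant. Post timing at 1–2 leaves, height 2–10 cm. Readout: visual injury on a 0–100 scale roughly 10 days after application, untreated plants as reference.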
# morningglory [2] = assay: Test A postemergence; type: in vivo, Ipomoea spp.; conditions: 0 to 100 scale where 0 is no effect and 100 is complete control; for Morningglory plant response rating: 125 g ai/ha; for Plant response rating, Morningglory: 500 g ai/ha
# Procedure, shortened: as §1
# Heteranthera limosa = assay: Test B flooded paddy test; type: in vivo; conditions: Flood, 250 g ai/ha; 0 to 100 scale where 0 is no effect and 100 is complete control
# Procedure, shortened: (§2)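 Evaluation is visual, against untreated controls, 13 to 15 days after treatment. Before treatment, plants reached the 2-leaf stage; pots were then flooded 3 cm deep, compound was added to the water, and that level was maintained. Ratings run 0 to 100, with 100 meaning complete control.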
# sedge, umbrella [3] = assay: Test B flooded paddy test; type: in vivo, Cyperus difformis; conditions: Flood, 250 g ai/ha; 0 to 100 scale where 0 is no effect and 100 is complete control
# Procedure, shortened: as §2
# giant foxtail [4] = assay: Test A postemergence; type: in vivo, Setaria faberii; conditions: 0 to 100 scale where 0 is no effect and 100 is complete control; for Foxtail, Giant plant response rating: 125 g ai/ha; for Plant response rating, Foxtail, Giant: 500 g ai/ha
# Procedure, shortened: as §1
# barnyardgrass [5] = assay: Test C flooded paddy test; type: in vivo, Echinochloa crus-galli; conditions: Flood, scale 0 to 100 (0 no effect, 100 complete control), 13 to 15 days
# Procedure, shortened: (§3)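 Visual injury ratings against untreated controls, taken 13 to 15 days after compound was added to paddy water standing 3 cm above the soil.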
# large (Lg) crabgrass [6] = assay: Test A postemergence; type: in vivo, Digitaria sanguinalis; conditions: 0 to 100 scale where 0 is no effect and 100 is complete control; for Crabgrass, Large plant response rating: 125 g ai/ha; for Plant response rating, Crabgrass, Large: 500 g ai/ha
# Procedure, shortened: as §1
# velvetleaf [7] = assay: Test A postemergence; type: in vivo, Abutilon theophrasti; conditions: 0 to 100 scale where 0 is no effect and 100 is complete control; for Velvetleaf plant response rating: 125 g ai/ha; for Plant response rating, Velvetleaf: 500 g ai/ha
# Procedure, shortened: as §1
# large (Lg) crabgrass [8] = assay: Test A preemergence; type: in vivo, Digitaria sanguinalis; conditions: for Crabgrass, Large plant response rating (0 to 100 scale): 125 g ai/ha; for Crabgrass, Large plant response rating: 500 g ai/ha, 0 to 100 scale where 0 is no effect and 100 is complete control
# Procedure, shortened: as §1
# wheat [9] = assay: Test A preemergence; type: in vivo, Triticum aestivum; conditions: for Wheat plant response rating (0 to 100 scale): 125 g ai/ha; for Wheat plant response rating: 500 g ai/ha, 0 to 100 scale where 0 is no effect and 100 is complete control
# Procedure, shortened: as §1
# wheat [10] = assay: Test A postemergence; type: in vivo, Triticum aestivum; conditions: 0 to 100 scale where 0 is no effect and 100 is complete control; for Wheat plant response rating: 125 g ai/ha; for Plant response rating, Wheat: 500 g ai/ha
# Procedure, shortened: as §1
# velvetleaf [11] = assay: Test A preemergence; type: in vivo, Abutilon theophrasti; conditions: for Velvetleaf plant response rating (0 to 100 scale): 125 g ai/ha; for Velvetleaf plant response rating: 500 g ai/ha, 0 to 100 scale where 0 is no effect and 100 is complete control
# Procedure, shortened: as §1
# pigweed [12] = assay: Test A postemergence; type: in vivo, Amaranthus retroflexus; conditions: 0 to 100 scale where 0 is no effect and 100 is complete control; for Pigweed plant response rating: 125 g ai/ha; for Plant response rating, Pigweed: 500 g ai/ha
# Procedure, shortened: as §1
# barnyardgrass [13] = assay: Test B flooded paddy test; type: in vivo, Echinochloa crus-galli; conditions: Flood, 250 g ai/ha; 0 to 100 scale where 0 is no effect and 100 is complete control
# Procedure, shortened: as §2
# barnyardgrass [14] = assay: Test A postemergence; type: in vivo, Echinochloa crus-galli; conditions: 0 to 100 scale where 0 is no effect and 100 is complete control; for Barnyardgrass plant response rating: 125 g ai/ha; for Plant response rating, Barnyardgrass: 500 g ai/ha
# Procedure, shortened: as §1
# corn [15] = assay: Test A preemergence; type: in vivo, Zea mays; conditions: for Corn plant response rating (0 to 100 scale): 125 g ai/ha; for Corn plant response rating: 500 g ai/ha, 0 to 100 scale where 0 is no effect and 100 is complete control
# Procedure, shortened: as §1
# morningglory [16] = assay: Test A preemergence; type: in vivo, Ipomoea spp.; conditions: for Morningglory plant response rating (0 to 100 scale): 125 g ai/ha; for Morningglory plant response rating: 500 g ai/ha, 0 to 100 scale where 0 is no effect and 100 is complete control
# Procedure, shortened: as §1
# giant foxtail [17] = assay: Test A preemergence; type: in vivo, Setaria faberii; conditions: for Foxtail, Giant plant response rating (0 to 100 scale): 125 g ai/ha; for Foxtail, Giant plant response rating: 500 g ai/ha, 0 to 100 scale where 0 is no effect and 100 is complete control
# Procedure, shortened: as §1
# ducksalad = assay: Test C flooded paddy test; type: in vivo, Heteranthera limosa; conditions: Flood, scale 0 to 100 (0 no effect, 100 complete control), 13 to 15 days
# Procedure, shortened: as §3
# rice [18] = assay: Test C flooded paddy test; type: in vivo, Oryza sativa; conditions: Flood, scale 0 to 100 (0 no effect, 100 complete control), 13 to 15 days
# Procedure, shortened: as §3
# pigweed [19] = assay: Test A preemergence; type: in vivo, Amaranthus retroflexus; conditions: for Pigweed plant response rating (0 to 100 scale): 125 g ai/ha; for Pigweed plant response rating: 500 g ai/ha, 0 to 100 scale where 0 is no effect and 100 is complete control
# Procedure, shortened: as §1
# sedge, umbrella [20] = assay: Test C flooded paddy test; type: in vivo, Cyperus difformis; conditions: Flood, scale 0 to 100 (0 no effect, 100 complete control), 13 to 15 days
# Procedure, shortened: as §3
# barnyardgrass [21] = assay: Test A preemergence; type: in vivo, Echinochloa crus-galli; conditions: for Barnyardgrass plant response rating (0 to 100 scale, 0 is no effect, 100 is complete control): 125 g ai/ha; for Barnyardgrass plant response rating: 500 g ai/ha, 0 to 100 scale where 0 is no effect and 100 is complete control
# Procedure, shortened: as §1
# rice [22] = assay: Test B flooded paddy test; type: in vivo, Oryza sativa; conditions: Flood, 250 g ai/ha; 0 to 100 scale where 0 is no effect and 100 is complete control
# Procedure, shortened: as §2
structure (smiles),measurement,setting,value
CON=Cc1cccc(Oc2ncc(Cl)cn2)c1-n1cc(Br)cn1 [Compound 203],Corn plant response rating,corn [1],30
same,"Plant response rating, Corn",corn [1],50
same,Morningglory plant response rating,morningglory [2],20
same,"Plant response rating, Morningglory",morningglory [2],70
same,"Plant response rating, Ducksalad",Heteranthera limosa,90
same,"Plant response rating, Sedge, Umbrella","sedge, umbrella [3]",90
same,"Foxtail, Giant plant response rating",giant foxtail [4],70
same,"Plant response rating, Foxtail, Giant",giant foxtail [4],80
same,"Plant response rating, Barnyardgrass",barnyardgrass [5]; 31 g ai/ha,40
same,"Plant response rating, Barnyardgrass",barnyardgrass [5]; 62 g ai/ha,50
same,"Plant response rating, Barnyardgrass",barnyardgrass [5]; 125 g ai/ha,50
same,"Crabgrass, Large plant response rating",large (Lg) crabgrass [6],60
same,"Plant response rating, Crabgrass, Large",large (Lg) crabgrass [6],80
same,Velvetleaf plant response rating,velvetleaf [7],80
same,"Plant response rating, Velvetleaf",velvetleaf [7],90
same,"Crabgrass, Large plant response rating (0 to 100 scale)",large (Lg) crabgrass [8],100
same,"Crabgrass, Large plant response rating",large (Lg) crabgrass [8],100
same,Wheat plant response rating (0 to 100 scale),wheat [9],0
same,Wheat plant response rating,wheat [9],0
same,Wheat plant response rating,wheat [10],0
same,"Plant response rating, Wheat",wheat [10],20
same,Velvetleaf plant response rating (0 to 100 scale),velvetleaf [11],30
same,Velvetleaf plant response rating,velvetleaf [11],40
same,Pigweed plant response rating,pigweed [12],70
same,"Plant response rating, Pigweed",pigweed [12],90
same,"Plant response rating, Barnyardgrass",barnyardgrass [13],0
same,Barnyardgrass plant response rating,barnyardgrass [14],40
same,"Plant response rating, Barnyardgrass",barnyardgrass [14],70
same,Corn plant response rating (0 to 100 scale),corn [15],0
same,Corn plant response rating,corn [15],0
same,Morningglory plant response rating (0 to 100 scale),morningglory [16],0
same,Morningglory plant response rating,morningglory [16],10
same,"Foxtail, Giant plant response rating (0 to 100 scale)",giant foxtail [17],90
same,"Foxtail, Giant plant response rating",giant foxtail [17],100
same,"Plant response rating, Ducksalad",ducksalad; 31 g ai/ha,0
same,"Plant response rating, Ducksalad",ducksalad; 62 g ai/ha,50
same,"Plant response rating, Ducksalad",ducksalad; 125 g ai/ha,70
same,"Plant response rating, Rice",rice [18]; 31 g ai/ha,0
same,"Plant response rating, Rice",rice [18]; 62 g ai/ha,20
same,"Plant response rating, Rice",rice [18]; 125 g ai/ha,20
same,Pigweed plant response rating (0 to 100 scale),pigweed [19],90
same,Pigweed plant response rating,pigweed [19],100
same,"Plant response rating, Sedge, Umbrella","sedge, umbrella [20]; 31 g ai/ha",50
same,"Plant response rating, Sedge, Umbrella","sedge, umbrella [20]; 62 g ai/ha",75
same,"Plant response rating, Sedge, Umbrella","sedge, umbrella [20]; 125 g ai/ha",85
same,"Barnyardgrass plant response rating (0 to 100 scale, 0 is no effect, 100 is complete control)",barnyardgrass [21],10
same,Barnyardgrass plant response rating,barnyardgrass [21],40
same,"Plant response rating, Rice",rice [22],10
FC(F)c1cccc(Oc2ncc(Br)cn2)c1-n1cc(Br)cn1 [Compound 231],Corn plant response rating,corn [1],20
same,"Plant response rating, Corn",corn [1],90
same,Morningglory plant response rating,morningglory [2],30
same,"Plant response rating, Morningglory",morningglory [2],90
same,"Plant response rating, Ducksalad",Heteranthera limosa,80
same,"Plant response rating, Sedge, Umbrella","sedge, umbrella [3]",80
same,"Foxtail, Giant plant response rating",giant foxtail [4],70
same,"Plant response rating, Foxtail, Giant",giant foxtail [4],90
same,"Plant response rating, Barnyardgrass",barnyardgrass [5]; 31 g ai/ha,0
same,"Plant response rating, Barnyardgrass",barnyardgrass [5]; 62 g ai/ha,0
same,"Plant response rating, Barnyardgrass",barnyardgrass [5]; 125 g ai/ha,0
same,"Plant response rating, Barnyardgrass",barnyardgrass [5]; 250 g ai/ha,0
same,"Crabgrass, Large plant response rating",large (Lg) crabgrass [6],70
same,"Plant response rating, Crabgrass, Large",large (Lg) crabgrass [6],90
same,Velvetleaf plant response rating,velvetleaf [7],100
same,"Plant response rating, Velvetleaf",velvetleaf [7],100
same,"Crabgrass, Large plant response rating (0 to 100 scale)",large (Lg) crabgrass [8],90
same,"Crabgrass, Large plant response rating",large (Lg) crabgrass [8],100
same,Wheat plant response rating (0 to 100 scale),wheat [9],0
same,Wheat plant response rating,wheat [9],20
same,Wheat plant response rating,wheat [10],20
same,"Plant response rating, Wheat",wheat [10],50
same,Velvetleaf plant response rating (0 to 100 scale),velvetleaf [11],0
same,Velvetleaf plant response rating,velvetleaf [11],100
same,Pigweed plant response rating,pigweed [12],100
same,"Plant response rating, Pigweed",pigweed [12],100
same,"Plant response rating, Barnyardgrass",barnyardgrass [13],20
same,Barnyardgrass plant response rating,barnyardgrass [14],40
same,"Plant response rating, Barnyardgrass",barnyardgrass [14],90
same,Corn plant response rating (0 to 100 scale),corn [15],0
same,Corn plant response rating,corn [15],20
same,Morningglory plant response rating (0 to 100 scale),morningglory [16],0
same,Morningglory plant response rating,morningglory [16],30
same,"Foxtail, Giant plant response rating (0 to 100 scale)",giant foxtail [17],90
same,"Foxtail, Giant plant response rating",giant foxtail [17],100
same,"Plant response rating, Ducksalad",ducksalad; 31 g ai/ha,0
same,"Plant response rating, Ducksalad",ducksalad; 62 g ai/ha,30
same,"Plant response rating, Ducksalad",ducksalad; 125 g ai/ha,70
same,"Plant response rating, Ducksalad",ducksalad; 250 g ai/ha,75
same,"Plant response rating, Rice",rice [18]; 31 g ai/ha,0
same,"Plant response rating, Rice",rice [18]; 62 g ai/ha,0
same,"Plant response rating, Rice",rice [18]; 125 g ai/ha,0
same,"Plant response rating, Rice",rice [18]; 250 g ai/ha,0
same,Pigweed plant response rating (0 to 100 scale),pigweed [19],90
same,Pigweed plant response rating,pigweed [19],100
same,"Plant response rating, Sedge, Umbrella","sedge, umbrella [20]; 31 g ai/ha",0
same,"Plant response rating, Sedge, Umbrella","sedge, umbrella [20]; 62 g ai/ha",50
same,"Plant response rating, Sedge, Umbrella","sedge, umbrella [20]; 125 g ai/ha",70
same,"Plant response rating, Sedge, Umbrella","sedge, umbrella [20]; 250 g ai/ha",80
same,"Barnyardgrass plant response rating (0 to 100 scale, 0 is no effect, 100 is complete control)",barnyardgrass [21],20
same,Barnyardgrass plant response rating,barnyardgrass [21],100
same,"Plant response rating, Rice",rice [22],30
